Test results from PubChem BioAssay AID1918994 (Molecular Pharmacology Branch, DTP, NCI, 2023).

Test system: 292921-168-R-J2-PDC complex spheroid growth
Assay: Anticancer human tumor 292921-168-R-J2-PDC patient-derived pancreatic carcinoma cell line growth inhibition [AhR]
Details: for IC50: curve of first compound; for viability, T/C: stronger effect = lower value; active = viability on the fitted dose curve at most 10% of control; inactive = the rest
Summary of the method: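 Spheroids combined tumor cells with HUVEC endothelial cells and human MSCs as stroma. AhR antagonists were paired with standard or investigational drugs, each dosed in half-log steps down from near clinical Cmax, or from 10 microM where Cmax was unknown.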

[1] = second compound 0.1 µM, first compound 0.0316 µM
[2] = second compound 0.1 µM, first compound 0.1 µM
[3] = second compound 0.1 µM, first compound 0.316 µM
[4] = second compound 0.1 µM, first compound 1 µM
[5] = second compound 0.1 µM, first compound 3.16 µM
[6] = second compound 0.1 µM, first compound 10 µM
[7] = second compound 0.316 µM, first compound 0.0316 µM
[8] = second compound 0.316 µM, first compound 0.1 µM
[9] = second compound 0.316 µM, first compound 0.316 µM
[10] = second compound 0.316 µM, first compound 1 µM
[11] = second compound 0.316 µM, first compound 3.16 µM
[12] = second compound 0.316 µM, first compound 10 µM
[13] = second compound 1 µM, first compound 0.0316 µM
[14] = second compound 1 µM, first compound 0.1 µM
[15] = second compound 1 µM, first compound 0.316 µM
[16] = second compound 1 µM, first compound 1 µM
[17] = second compound 1 µM, first compound 3.16 µM
[18] = second compound 1 µM, first compound 10 µM
[19] = second compound 3.16 µM, first compound 0.0316 µM
[20] = second compound 3.16 µM, first compound 0.1 µM
[21] = second compound 3.16 µM, first compound 0.316 µM
[22] = second compound 3.16 µM, first compound 1 µM
[23] = second compound 3.16 µM, first compound 3.16 µM
[24] = second compound 3.16 µM, first compound 10 µM
[25] = second compound 10 µM, first compound 0.0316 µM
[26] = second compound 10 µM, first compound 0.1 µM
[27] = second compound 10 µM, first compound 0.316 µM
[28] = second compound 10 µM, first compound 1 µM
[29] = second compound 10 µM, first compound 3.16 µM
[30] = second compound 10 µM, first compound 10 µM
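Also: spheroids exposed to compounds for seven days after three days of growth.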

CC1(C)CCC(CN2CCN(c3ccc(C(=O)NS(=O)(=O)c4ccc(NCC5CCOCC5)c([N+](=O)[O-])c4)c(Oc4cnc5[nH]ccc5c4)c3)CC2)=C(c2ccc(Cl)cc2)C1 + CC(CO)NC(=O)c1cc(-c2ccc(Cl)cc2)nn(-c2cnn(C)c2)c1=O
6810 nM: IC50 (second compound 1 µM)
6190 nM: IC50 (second compound 0.1 µM)
6330 nM: IC50 (second compound 0.316 µM)
inactive: viability, T/C [1] 103% | viability, T/C [2] 101% | viability, T/C [3] 108% | viability, T/C [4] 103% | viability, T/C [5] 91.1% | viability, T/C [6] 20.7% | viability, T/C [7] 105% | viability, T/C [8] 98.7% | viability, T/C [9] 106% | viability, T/C [10] 95.6% | viability, T/C [11] 97.5% | viability, T/C [12] 18.8% | viability, T/C [13] 96.7% | viability, T/C [14] 94.9% | viability, T/C [15] 102% | viability, T/C [16] 98.2% | viability, T/C [17] 101% | viability, T/C [18] 25.6% | viability, T/C [19] 92.9% | viability, T/C [20] 87.4% | viability, T/C [21] 93.3% | viability, T/C [22] 96.7% | viability, T/C [23] 83.8% | viability, T/C [24] 18.5% | viability, T/C [25] 67.8% | viability, T/C [26] 70.7% | viability, T/C [27] 71.6% | viability, T/C [28] 72.5% | viability, T/C [29] 62.2% | viability, T/C [30] 16%
4310 nM: IC50 (second compound 10 µM)
5750 nM: IC50 (second compound 3.16 µM)

CCN(c1cc(-c2ccc(CN3CCOCC3)cc2)cc(C(=O)NCc2c(C)cc(C)[nH]c2=O)c1C)C1CCOCC1 + CC(CO)NC(=O)c1cc(-c2ccc(Cl)cc2)nn(-c2cnn(C)c2)c1=O
inactive: viability, T/C (second compound 0.1 µM, first compound 0.00949 µM) 103% | viability, T/C (second compound 0.1 µM, first compound 0.03 µM) 100% | viability, T/C (second compound 0.1 µM, first compound 0.0949 µM) 102% | viability, T/C (second compound 0.1 µM, first compound 0.3 µM) 93.1% | viability, T/C (second compound 0.1 µM, first compound 0.949 µM) 96.9% | viability, T/C (second compound 0.1 µM, first compound 3 µM) 93.9% | viability, T/C (second compound 0.316 µM, first compound 0.00949 µM) 107% | viability, T/C (second compound 0.316 µM, first compound 0.03 µM) 102% | viability, T/C (second compound 0.316 µM, first compound 0.0949 µM) 100% | viability, T/C (second compound 0.316 µM, first compound 0.3 µM) 103% | viability, T/C (second compound 0.316 µM, first compound 0.949 µM) 94.8% | viability, T/C (second compound 0.316 µM, first compound 3 µM) 87% | viability, T/C (second compound 1 µM, first compound 0.00949 µM) 102% | viability, T/C (second compound 1 µM, first compound 0.03 µM) 99% | viability, T/C (second compound 1 µM, first compound 0.0949 µM) 110% | viability, T/C (second compound 1 µM, first compound 0.3 µM) 97% | viability, T/C (second compound 1 µM, first compound 0.949 µM) 95.5% | viability, T/C (second compound 1 µM, first compound 3 µM) 86.5% | viability, T/C (second compound 3.16 µM, first compound 0.00949 µM) 91.9% | viability, T/C (second compound 3.16 µM, first compound 0.03 µM) 89.4% | viability, T/C (second compound 3.16 µM, first compound 0.0949 µM) 104% | viability, T/C (second compound 3.16 µM, first compound 0.3 µM) 85% | viability, T/C (second compound 3.16 µM, first compound 0.949 µM) 81% | viability, T/C (second compound 3.16 µM, first compound 3 µM) 83% | viability, T/C (second compound 10 µM, first compound 0.00949 µM) 69.1% | viability, T/C (second compound 10 µM, first compound 0.03 µM) 71.1% | viability, T/C (second compound 10 µM, first compound 0.0949 µM) 76.4% | viability, T/C (second compound 10 µM, first compound 0.3 µM) 76.2% | viability, T/C (second compound 10 µM, first compound 0.949 µM) 69.9% | viability, T/C (second compound 10 µM, first compound 3 µM) 72.9%
> 3000 nM: IC50 (second compound 0.1 µM) | IC50 (second compound 0.316 µM) | IC50 (second compound 1 µM) | IC50 (second compound 3.16 µM) | IC50 (second compound 10 µM)

COc1cc(Nc2ncc3c(n2)-c2ccc(Cl)cc2C(c2c(F)cccc2OC)=NC3)ccc1C(=O)O + CC(CO)NC(=O)c1cc(-c2ccc(Cl)cc2)nn(-c2cnn(C)c2)c1=O
< 31.6 nM: IC50 (second compound 0.1 µM) | IC50 (second compound 0.316 µM) | IC50 (second compound 1 µM) | IC50 (second compound 3.16 µM) | IC50 (second compound 10 µM)
inactive: viability, T/C [1] 51% | viability, T/C [2] 41.9% | viability, T/C [3] 44.8% | viability, T/C [4] 40.1% | viability, T/C [5] 40.7% | viability, T/C [6] 31.4% | viability, T/C [7] 50.8% | viability, T/C [8] 40.1% | viability, T/C [9] 44.1% | viability, T/C [10] 40.9% | viability, T/C [11] 34.3% | viability, T/C [12] 33.3% | viability, T/C [13] 52.5% | viability, T/C [14] 40.3% | viability, T/C [15] 39.3% | viability, T/C [16] 47.9% | viability, T/C [17] 37.3% | viability, T/C [18] 30% | viability, T/C [19] 45.3% | viability, T/C [20] 36.2% | viability, T/C [21] 44.3% | viability, T/C [22] 42% | viability, T/C [23] 36.8% | viability, T/C [24] 28.4% | viability, T/C [25] 38.5% | viability, T/C [26] 33.4% | viability, T/C [27] 37.3% | viability, T/C [28] 38.8% | viability, T/C [29] 32.6% | viability, T/C [30] 26.4%

Cn1ncnc1C1c2n[nH]c(=O)c3cc(F)cc(c23)NC1c1ccc(F)cc1 (stereo not given) + CC(CO)NC(=O)c1cc(-c2ccc(Cl)cc2)nn(-c2cnn(C)c2)c1=O
inactive: viability, T/C (second compound 0.1 µM, first compound 0.000316 µM) 103% | viability, T/C (second compound 0.1 µM, first compound 0.001 µM) 109% | viability, T/C (second compound 0.1 µM, first compound 0.00316 µM) 100% | viability, T/C (second compound 0.1 µM, first compound 0.01 µM) 99.8% | viability, T/C [1] 94.3% | viability, T/C [2] 87.6% | viability, T/C (second compound 0.316 µM, first compound 0.000316 µM) 109% | viability, T/C (second compound 0.316 µM, first compound 0.001 µM) 97.5% | viability, T/C (second compound 0.316 µM, first compound 0.00316 µM) 104% | viability, T/C (second compound 0.316 µM, first compound 0.01 µM) 96% | viability, T/C [7] 96.5% | viability, T/C [8] 79.9% | viability, T/C (second compound 1 µM, first compound 0.000316 µM) 108% | viability, T/C (second compound 1 µM, first compound 0.001 µM) 106% | viability, T/C (second compound 1 µM, first compound 0.00316 µM) 99.6% | viability, T/C (second compound 1 µM, first compound 0.01 µM) 89.9% | viability, T/C [13] 86.3% | viability, T/C [14] 94.3% | viability, T/C (second compound 3.16 µM, first compound 0.000316 µM) 92.2% | viability, T/C (second compound 3.16 µM, first compound 0.001 µM) 99.2% | viability, T/C (second compound 3.16 µM, first compound 0.00316 µM) 92.6% | viability, T/C (second compound 3.16 µM, first compound 0.01 µM) 92.9% | viability, T/C [19] 77.1% | viability, T/C [20] 77.4% | viability, T/C (second compound 10 µM, first compound 0.000316 µM) 68.5% | viability, T/C (second compound 10 µM, first compound 0.001 µM) 73.3% | viability, T/C (second compound 10 µM, first compound 0.00316 µM) 75.8% | viability, T/C (second compound 10 µM, first compound 0.01 µM) 73% | viability, T/C [25] 67% | viability, T/C [26] 64.6%
> 100 nM: IC50 (second compound 0.1 µM) | IC50 (second compound 0.316 µM) | IC50 (second compound 1 µM) | IC50 (second compound 3.16 µM) | IC50 (second compound 10 µM)

NS(=O)(=O)OCC1CC(n2ccc3c(NC4CCc5ccccc54)ncnc32)CC1O (stereo not given) + CC(CO)NC(=O)c1cc(-c2ccc(Cl)cc2)nn(-c2cnn(C)c2)c1=O
active: viability, T/C [4] 5.49% | viability, T/C [5] 4.31% | viability, T/C [6] 5.11% | viability, T/C [10] 6.03% | viability, T/C [11] 3.81% | viability, T/C [12] 4.31% | viability, T/C [16] 5.81% | viability, T/C [17] 4.08% | viability, T/C [18] 4.94% | viability, T/C [22] 5.74% | viability, T/C [23] 4% | viability, T/C [24] 5.65% | viability, T/C [28] 6.76% | viability, T/C [29] 3.96% | viability, T/C [30] 5.6%
223 nM: IC50 (second compound 1 µM)
inactive: viability, T/C [1] 117% | viability, T/C [2] 98.1% | viability, T/C [3] 24.8% | viability, T/C [7] 125% | viability, T/C [8] 98% | viability, T/C [9] 28.5% | viability, T/C [13] 116% | viability, T/C [14] 101% | viability, T/C [15] 27.8% | viability, T/C [19] 105% | viability, T/C [20] 93.5% | viability, T/C [21] 25.2% | viability, T/C [25] 89.6% | viability, T/C [26] 73.1% | viability, T/C [27] 22.2%
213 nM: IC50 (second compound 0.1 µM)
221 nM: IC50 (second compound 0.316 µM)
208 nM: IC50 (second compound 3.16 µM)
169 nM: IC50 (second compound 10 µM)
